From US10519133B2, “Vinyl compounds as FGFR and VEGFR inhibitors” (MEDSHINE DISCOVERY INC., priority 2015, dated 2019)

Tests used:
[1] = female, Balb/c nude, mouse, in vivo, 2 mg/kg
Description: (§1) Experimental Procedure: A clear solution of the test compound in 20% DMSO/60% PEG400/20% water at 0.4 mg/ml was administered by intragastric administration to female Balb/c nude mice (fasted overnight, 7-9 weeks of age) with a dose of 2 mg/kg. About 30 μL of blood was collected from the jugular vein or caudal vein at 0.25, 0.5, 1.0, 2.0, 4.0, 8.0 and 24 h after administration in both groups of animals, placed in anticoagulation tube with EDTA-K2 and the plasma was centrifuged. Plasma concentrations were determined by LC-MS/MS and related pharmacokinetic parameters were calculated using the non-compartmental model linear logarithmic trapezoidal method using WinNonlin™ Version 6.3 (Pharsight, Mountain View, Calif.) pharmacokinetic software.

in vivo = conditions: female, Balb/c nude, mouse, po, 2 mg/kg
Description: as §1

FGFR1 = molecular target: T1, FGFR1 (Homo sapiens, UniProt P11362); assay: Z′-LYTE Detection Kinase Assay, in vitro enzymatic activity; assay type: biochemical; conditions: 0.6 nM FGFR1, 2 uM Tyr4 peptide, 10 uM ATP, 60 min 23° C.
T1 construct: purchased Invitrogen PV4105
Description: To measure enzyme activity by Z′-LYTE™ Detection Kinase Assay, and to evaluate the inhibitory effect of the compounds on FGFR1 using IC50 value of the compounds as an indicator. […]
Reaction Buffer: 50 mM Hepes (pH 7.5), 10 mM MgCl2, 1 mM EGTA, 0.01% Brij-35, 1 mM DTT, 2 mM MnCl2 0.6 nM FGFR1, 2 uM Tyr4 peptide and 10 uM ATP in reaction buffer (50 mM Hepes, pH 7.5, 10 mM MgCl2, 0.01% BRIJ-35, 1 mM EGTA, 4 mM MnCl2, 2 mM DTT). a. Diluting the compounds with DMSO to 10 mM, 3-fold dilution, 11 gradients, duplicate wells. b. Diluting the compound by 1:25 into middle plate at Bravo Automatic Liquid Station, then transferring 2.5 ul to the reaction plate to ensure the final DMSO concentration to be 1%. c. Transferring 5 ul of enzyme/substrate buffer into each well d. Using Multidrop Liquid Workstation to sequentially add ATP solution to each well e. Centrifuging at 1000 rpm for 1 minute f. Placing the reaction plate in an incubator at 23° C. to react for 60 min. a. Preparing a 1:128 mixture of Development Regent B and Development Buffer b. Adding 5 ul to each well and centrifuging at 1000 rpm for 1 minute c. Placing the reaction plate in a thermostat (23° C.) after centrifuging for 90 minutes, removing and reading on Envision (Perkin Elmer) Plate Reader
D. Analyzing Data: Analyzing Data Using XLFIT (IDBS) and Calculating IC50 Values for the Compounds.

[2] = tested on: FGFR1/2 Highly Expressed Patient-derived Liver Tumor Transplantation Model; assay: Tumor growth inhibition (TGI) analysis; assay type: in vivo, mice; conditions: BID
Description: The evolutionary growth potential of tumors was evaluated by the relationship between tumor volume and time. The long axis (L) and short axis (W) of the subcutaneous tumor were measured twice a week by the caliper and the tumor volume (TV) was calculated by the formula ((L×W^2)/2). TGI was calculated from the difference between the median tumor volume in the solvent group mice and the median tumor volume in the drug group mice, expressed as a percentage counting for the median tumor volume in the solvent control group, calculated by the following formula: % TGI=((median tumor volume(control)−median tumor volume(dosing group))/median tumor volume(control group))×100
The original statistical analysis was done by repeating the analysis of variance, followed by Scheffe psot hoc experimental method for multiple comparisons, with solvent alone (0.5% methylcellulose+0.2% Tween in water) as negative control.

SNU-16 cell = assay: CellTiter-Glo Luminescent Cell Viability Assay; assay type: cell-based; conditions: Homo sapiens, 72 h; SNU-16 cells, 3 days; read-out: SNU-16 IC50 (CellTiter-Glo Detection)
Description: To detect the change of intracellular ATP by CellTiter-Glo® Luminescent Cell Viability Assay, and to evaluate the inhibitory effect of the compounds on in vitro cell SNU-16 using IC50 value of the compounds as an indicator.
Cell line: SNU-16 cell strain d. Diluting SNU-16 with medium, adding the diluted cells to the 384 plate (Greiner. 781090) (50 μL/well, SNU-16 cell 750 cells/well) with multi-channel pipette. Placing the cell plate in a 37° C., 5% CO2 incubator overnight. […]
g. Diluting the compound with DMSO to 10 mM, 3-fold dilution, 11 gradients, duplicate wells. h. Transferring 2.4 ul of the compound to the middle plate added with 47.6 ul of cell culture media at Bravo Automatic Liquid Station. Then transferring 5 ul to the cell culture plate (55 ul) to ensure the final DMSO concentration to be 0.4%. […]
i. Placing the cell culture plate in 5% CO2 incubator at 37° C. to continue cultivating for 3 days. d. Balancing Cell Titer Glo Reagent to room temperature e. Taking 30 ul of Cell Titer Glo Reagent in a 1:2 ratio into each well and gently mixing for 2 minutes f. Placing the cell culture plate in an incubator (23° C.) for 10 minutes, taking out and centrifuging at 1000 rpm for 1 minute g. Reading on Envision (Perkin Elmer) Plate Reader.
H. Analyzing Data: Analyzing the Data Using XLFIT (IDBS) and Calculating IC50 Values for the Compounds.

T1 sequence (P11362 22-822): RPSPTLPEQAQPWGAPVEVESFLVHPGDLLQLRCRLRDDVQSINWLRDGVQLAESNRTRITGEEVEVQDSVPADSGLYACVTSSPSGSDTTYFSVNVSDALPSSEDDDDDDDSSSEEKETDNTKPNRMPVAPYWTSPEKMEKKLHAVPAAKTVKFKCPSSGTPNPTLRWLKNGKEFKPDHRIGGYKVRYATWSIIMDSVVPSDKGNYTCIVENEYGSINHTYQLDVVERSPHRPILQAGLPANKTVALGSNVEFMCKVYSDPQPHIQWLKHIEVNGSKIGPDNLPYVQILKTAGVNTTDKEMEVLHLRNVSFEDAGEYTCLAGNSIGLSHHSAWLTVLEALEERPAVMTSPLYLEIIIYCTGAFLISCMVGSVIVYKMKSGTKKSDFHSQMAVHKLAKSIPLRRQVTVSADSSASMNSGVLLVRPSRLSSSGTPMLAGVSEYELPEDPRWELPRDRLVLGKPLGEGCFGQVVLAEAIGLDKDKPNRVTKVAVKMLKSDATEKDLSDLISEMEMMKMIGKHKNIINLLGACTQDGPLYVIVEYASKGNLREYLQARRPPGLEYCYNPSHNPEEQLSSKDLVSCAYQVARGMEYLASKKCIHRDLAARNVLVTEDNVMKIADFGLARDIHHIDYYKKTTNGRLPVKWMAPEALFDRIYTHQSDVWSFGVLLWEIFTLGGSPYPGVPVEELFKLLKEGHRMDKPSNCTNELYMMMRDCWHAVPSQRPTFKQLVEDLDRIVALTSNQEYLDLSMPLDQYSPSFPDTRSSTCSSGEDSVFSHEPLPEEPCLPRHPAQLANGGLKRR

| Compound | IC50 (FGFR1) [µM] | TGI % (last administration) ([2]; 15 mg/kg) [%] | also measured |
| --- | --- | --- | --- |
| CC(Oc1ccc2[nH]nc(/C=C/c3ccc(CN4CCOCC4)cc3)c2c1)c1c(Cl)cncc1Cl (stereo not drawn) [WX_063] | – | – | peak time [1]: 0.25 h; AUC(0-t) (in vivo): 0.221 ± 0.0713 µM·h; Cmax (in vivo): 214 ± 39.7 nM |
| CC(Oc1ccc2[nH]nc(/C=C/c3ccc(CN4CCOCC4)cc3)c2c1)c1c(Cl)cncc1Cl (stereo not drawn) [Example 63] | 0.01 to 0.05 | 86 | – |
| C[C@@H](Oc1ccc2[nH]nc(/C=C(\F)c3ccc(CNC4CCOCC4)nc3)c2c1)c1c(Cl)cncc1Cl [Example 18] | ≤ 0.01 | – | TGI % (last administration) ([2]; 5 mg/kg): 85% |
| CC(Oc1ccc2[nH]nc(/C=C(\F)c3ccc(CN4CCOCC4)nc3)c2c1)c1c(Cl)cncc1Cl (stereo not drawn) [Example 16] | 0.01 to 0.05 | 84.5 | IC50 (SNU-16 cell): ≤ 0.01 µM |
| CC(Oc1ccc2[nH]nc(/C=C/c3ccc(CN4CCOCC4)nn3)c2c1)c1c(Cl)cncc1Cl (stereo not drawn) [Example 54] | ≤ 0.01 | – | TGI % (last administration) ([2]; 10 mg/kg): 85.4% |
